Experimental data from patent US6881741B2 (ViroChem Pharma Inc., priority 2001, dated 2005).

The molecules below were run against recombinant HCV NS5B (HCV RNA-dependent RNA polymerase) (Hepatitis C virus genotype 1b, UniProt P26663) (assay: biochemical). Conditions: HCV polymerase activity, list of compounds of Example 27; read-out: IC50 (polymerase activity).
Chain of recombinant HCV NS5B (HCV RNA-dependent RNA polymerase) (P26663 2420-3010 limits assumed): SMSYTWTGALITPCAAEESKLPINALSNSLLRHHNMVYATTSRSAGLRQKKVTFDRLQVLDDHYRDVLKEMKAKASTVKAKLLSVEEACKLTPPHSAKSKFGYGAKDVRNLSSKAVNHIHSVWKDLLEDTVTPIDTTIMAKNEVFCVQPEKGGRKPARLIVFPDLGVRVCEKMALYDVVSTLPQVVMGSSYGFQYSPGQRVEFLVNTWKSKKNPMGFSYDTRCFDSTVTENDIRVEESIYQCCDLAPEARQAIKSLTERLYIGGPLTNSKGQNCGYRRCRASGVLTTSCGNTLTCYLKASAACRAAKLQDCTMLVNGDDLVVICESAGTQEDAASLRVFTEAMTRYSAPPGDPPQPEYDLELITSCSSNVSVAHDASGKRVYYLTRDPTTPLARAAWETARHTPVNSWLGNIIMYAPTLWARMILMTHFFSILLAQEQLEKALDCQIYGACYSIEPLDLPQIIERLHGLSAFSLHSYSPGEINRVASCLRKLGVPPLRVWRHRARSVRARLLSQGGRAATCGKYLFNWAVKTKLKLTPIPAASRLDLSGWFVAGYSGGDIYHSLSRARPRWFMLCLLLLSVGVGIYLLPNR

SMILES | IC50
CC(C)N(C(=O)c1ccc(Cl)cc1Cl)c1cc(C2CCNCC2)sc1C(=O)O [Compound 526, 3-[(2,4-DICHLORO-BENZOYL)- ISOPROPYL-AMINO]-5-PIPERIDIN-4-YL- THIOPHENE-2-CARBOXYLIC ACID; COMPOUND WITH TRIFLUORO-ACETIC ACID] | > 20 µM
CC(C)N(C(=O)[C@@H]1CC[C@@H](C)C[C@@H]1O)c1cc(-c2ccccc2)sc1C(=O)O [Compound 540, 3-[((1R,2S,4R)-2-HYDROXY-4-METHYL- CYCLOHEXANECARBONYL)-ISOPROPYL- AMINO]-5-PHENYL-THIOPHENE-2- CARBOXYLIC ACID] | < 5 µM
CC1CCC(C(=O)N(c2cc(-c3ccc(Cl)cc3)sc2C(=O)O)C(C)C)CC1 (stereo not drawn) [Compound 570, 5-(4-CHLORO-PHENYL)-3-[ISOPROPYL-(4- METHYL-CYCLOHEXANECARBONYL)- AMINO]-THIOPHENE-2-CARBOXYLIC ACID] | < 5 µM
CCCC(=O)N(Cc1ccc(C)cc1)c1cc(-c2ccccc2)sc1C(=O)O [Compound 470, 3-[BUTYRYL-(4-METHYL-BENZYL)- AMINO]-5-PHENYL-THIOPHENE-2- CARBOXYLIC ACID] | 5 to 20 µM
O=C(O)c1sc(-c2ccccc2)cc1N(Cc1ccc([N+](=O)[O-])cc1)C(=O)CC1CCCC1 [Compound 443, 3-[(2-CYCLOPENTYL-ACETYL)-(4-NITRO- BENZYL)-AMINO]-5-PHENYL-THIOPHENE- 2-CARBOXYLIC ACID] | < 5 µM
Cc1ccccc1S(=O)(=O)Nc1cc(Br)sc1C(=O)O [Compound 552, 5-BROMO-3-(TOLUENE-2- SULFONYLAMINO)-THIOPHENE-2- CARBOXYLIC ACID] | 5 to 20 µM
CC1CCC(C(=O)N(CC2CCNCC2)c2cc(-c3ccccc3)sc2C(=O)O)CC1 (stereo not drawn) [Compound 544, 4-([(2-CARBOXY-5-PHENYL-THIOPHEN-3- YL)-(4-METHYL- CYCLOHEXANECARBONYL)-AMINO]- METHYL)-PIPERIDINIUM; TRIFLUORO- ACETATE] | < 5 µM
O=C(O)c1sc(-c2ccccc2)cc1N(Cc1ccccc1Cl)C(=O)C1CCCCC1 [Compound 444, 3-[(2-CHLORO-BENZYL)- CYCLOHEXANECARBONYL-AMINO]-5- PHENYL-THIOPHENE-2-CARBOXYLIC ACID] | < 5 µM
CC(C)N(C(=O)C1CC=CCC1)c1cc(-c2ccccc2)sc1C(=O)O (stereo not drawn) [Compound 530, 3-[(CYCLOHEX-3-ENECARBONYL)- ISOPROPYL-AMINO]-5-PHENYL- THIOPHENE-2-CARBOXYLIC ACID] | 5 to 20 µM
O=C(O)c1sc(-c2ccccc2)cc1N(CC1CCN(C(=O)OCc2ccccc2)CC1)C(=O)c1ccc(Cl)cc1Cl [Compound 508, 4-{[(2-CARBOXY-5-PHENYL-THIOPHEN-3- YL)-(2,4-DICHLORO-BENZOYL)-AMINO]- METHYL}-PIPERIDINE-1-CARBOXYLIC ACID BENZYL ESTER] | < 5 µM
COc1cc(C)c(S(=O)(=O)N2CC(C)=CCC2C(=O)N(c2cc(-c3ccccc3)sc2C(=O)O)C(C)C)c(C)c1C (stereo not drawn) [Compound 541, 3-(ISOPROPYL-[1-(4-METHOXY-2,3,6- TRIMETHYL-BENZENESULFONYL)-5- METHYL-1,2,3,6-TETRAHYDRO- PYRIDINE-2-CARBONYL]-AMINO)-5- PHENYL-THIOPHENE-2-CARBOXYLIC ACID] | 5 to 20 µM

Same assay, conditions: related polymerase activity (Example 27 list); read-out: IC50

SMILES | IC50
COc1cccc(CN(C(=O)c2ccc(C)cc2)c2cc(-c3ccccc3)sc2C(=O)O)c1 [Compound 344, 3-[(3-METHOXY-BENZYL)-(4-METHYL- BENZOYL)-AMINO]-5-PHENYL- THIOPHENE-2-CARBOXYLIC ACID] | < 5 µM
O=C(O)c1sc(-c2ccccc2)cc1NS(=O)(=O)c1ccccn1 [Compound 47, 5-PHENYL-3-(PYRIDINE-2-SULFONYLAMINO)-THIOPHENE-2-CARBOXYLIC ACID] | > 20 µM
Cc1cc(S(=O)(=O)N(Cc2cccc(-c3cc4ccccc4o3)c2)c2cc(-c3ccccc3)sc2C(=O)O)c(C)cc1Cl [Compound 2, 3-[(3-BENZOFURAN-2-YL-BENZYL)-(4-CHLORO-2,5-DIMETHYL-BENZENESULFONYL)-AMINO]-5-PHENYL-THIOPHENE-2-CARBOXYLIC ACID] | 5 to 20 µM
COc1ccc(-c2cc(NS(=O)(=O)c3ccccc3C)c(C(=O)O)s2)cc1 [Compound 122, 5-(4-METHOXY-PHENYL)-3-(TOLUENE-2-SULFONYLAMINO)-THIOPHENE-2-CARBOXYLIC ACID] | < 5 µM
COc1ccc(S(=O)(=O)Nc2cc(-c3ccccc3)sc2C(=O)O)c([N+](=O)[O-])c1 [Compound 152, 3-(4-METHOXY-2-NITRO-BENZENESULFONYLAMINO)-5-PHENYL-THIOPHENE-2-CARBOXYLIC ACID] | 5 to 20 µM
Cc1ccccc1S(=O)(=O)Nc1cc(-c2sccc2C)sc1C(=O)O [Compound 105, 3′-METHYL-4-(TOLUENE-2-SULFONYLAMINO)-[2,2′]BITHIOPHENYL-5-CARBOXYLIC ACID] | 5 to 20 µM
O=C(O)c1sc(-c2ccccc2)cc1NS(=O)(=O)c1cccc(C(F)(F)F)c1 [Compound 50, 5-PHENYL-3-(3-TRIFLUOROMETHYL-BENZENESULFONYLAMINO)-THIOPHENE-2-CARBOXYLIC ACID] | 5 to 20 µM
CC(C)N(C(=O)c1ccc(Cl)cc1[N+](=O)[O-])c1cc(-c2ccccc2)sc1C(=O)O [Compound 329, 3-[(4-CHLORO-2-NITRO-BENZOYL)- ISOPROPYL-AMINO]-5-PHENYL- THIOPHENE-2-CARBOXYLIC ACID] | < 5 µM
CC(=O)c1ccc(-c2cc(N(C(=O)c3ccc(Cl)cc3Cl)C(C)C)c(C(=O)O)s2)s1 [Compound 358, 5′-ACETYL-4-[(2,4-DICHLORO-BENZOYL)- ISOPROPYL-AMINO]-[2,2′]BITHIOPHENYL- 5-CARBOXYLIC ACID] | < 5 µM
CCOC(=O)c1c(S(=O)(=O)Nc2cc(-c3ccccc3)sc2C(=O)O)c(-c2ccccc2)n(-c2ccccc2)c1C [Compound 155, 4-(2-CARBOXY-5-PHENYL-THIOPHEN-3-YLSULFAMOYL)-2-METHYL-1,5-DIPHENYL-1H-PYRROLE-3-CARBOXYLIC ACID ETHYL ESTER] | < 5 µM
O=C(O)c1sc(-c2ccccc2)cc1NS(=O)(=O)c1cccc(Br)c1 [Compound 42, 3-(3-BROMO-BENZENESULFONYLAMINO)-5-PHENYL-THIOPHENE-2-CARBOXYLIC ACID] | 5 to 20 µM
CN(C(=O)CCC1CCCC1)c1cc(-c2ccccc2)sc1C(=O)O [Compound 384, 3-[(3-CYCLOPENTYL-PROPIONYL)- METHYL-AMINO]-5-PHENYL-THIOPHENE- 2-CARBOXYLIC ACID] | < 5 µM
Cc1ccccc1S(=O)(=O)Nc1cc(/C=C/c2ccccc2)sc1C(=O)O [Compound 108, 5-STYRYL-3-(TOLUENE-2-SULFONYLAMINO)-THIOPHENE-2-CARBOXYLIC ACID] | < 5 µM
C=CCN(C(=O)Cc1ccc(F)cc1Cl)c1cc(-c2ccccc2)sc1C(=O)O [Compound 349, 3-{ALLYL-[2-(2-CHLORO-4-FLUORO- PHENYL)-ACETYL]-AMINO}-5-PHENYL- THIOPHENE-2-CARBOXYLIC ACID] | 5 to 20 µM
CN(C(=O)c1sccc1Cl)c1cc(-c2ccccc2)sc1C(=O)O [Compound 186, 3-[(3-CHLORO-THIOPHENE-2-CARBONYL)-METHYL-AMINO]-5-PHENYL-THIOPHENE-2-CARBOXYLIC ACID] | 5 to 20 µM
Cc1ccc(C(=O)N(Cc2ccc([N+](=O)[O-])cc2)c2cc(-c3ccccc3)sc2C(=O)O)cc1 [Compound 342, 3-[(4-METHYL-BENZOYL)-(4-NITRO- BENZYL)-AMINO]-5-PHENYL-THIOPHENE- 2-CARBOXYLIC ACID] | < 5 µM
O=C(O)c1sc(-c2ccccc2)cc1NS(=O)(=O)c1ccc(Br)cc1 [Compound 39, 3-(4-BROMO-BENZENESULFONYLAMINO)-5-PHENYL-THIOPHENE-2-CARBOXYLIC ACID] | < 5 µM
O=C(Nc1cc(-c2ccccc2)sc1C(=O)O)c1cccs1 [Compound 74, 5-PHENYL-3-[(THIOPHENE-2-CARBONYL)-AMINO]-THIOPHENE-2-CARBOXYLIC ACID] | 5 to 20 µM
Cc1ccccc1S(=O)(=O)Nc1cc(-c2ccc(C(=O)O)cc2)sc1C(=O)OC(C)(C)C [Compound 239, 5-(4-CARBOXY-PHENYL)-3-(TOLUENE-2-SULFONYLAMINO)-THIOPHENE-2-CARBOXYLIC ACID TERT-BUTYL ESTER] | 5 to 20 µM
CC(C)N(C(=O)c1ccc(C(F)(F)F)cc1)c1cc(-c2ccccc2)sc1C(=O)O [Compound 243, 3-[ISOPROPYL-(4-TRIFLUOROMETHYL-BENZOYL)-AMINO]-5-PHENYL-THIOPHENE-2-CARBOXYLIC ACID] | < 5 µM
CC(C)N(C(=O)c1ccc(Cl)cc1)c1cc(-c2ccccc2)sc1C(=O)O [Compound 210, 3-[(4-CHLORO-BENZOYL)-ISOPROPYL-AMINO]-5-PHENYL-THIOPHENE-2-CARBOXYLIC ACID] | < 5 µM
Cc1ccccc1S(=O)(=O)Nc1cc(CCc2ccccc2)sc1C(=O)O [Compound 120, 5-PHENETHYL-3-(TOLUENE-2-SULFONYLAMINO)-THIOPHENE-2-CARBOXYLIC ACID] | 5 to 20 µM
Cc1ccccc1S(=O)(=O)Nc1cc(-c2cccc(O)c2)sc1C(=O)O [Compound 171, 5-(3-HYDROXY-PHENYL)-3-(TOLUENE-2-SULFONYLAMINO)-THIOPHENE-2-CARBOXYLIC ACID] | < 5 µM
CC(C)N(C(=O)c1ccc(C(F)(F)F)cc1F)c1cc(-c2ccccc2)sc1C(=O)O [Compound 326, 3-[(2-FLUORO-4-TRIFLUOROMETHYL- BENZOYL)-ISOPROPYL-AMINO]-5- PHENYL-THIOPHENE-2-CARBOXYLIC ACID] | < 5 µM
CC(C)N(C(=O)c1ccc(Cl)cc1Cl)c1cc(-c2cc3ccccc3o2)sc1C(=O)O [Compound 376, 5-BENZOFURAN-2-YL-3-[(2,4-DICHLORO- BENZOYL)-ISOPROPYL-AMINO]- THIOPHENE-2-CARBOXYLIC ACID] | < 5 µM
O=C(NCCCc1ccccc1)Nc1cc(-c2ccccc2)sc1C(=O)O [Compound 179, 5-PHENYL-3-[3-(3-PHENYL-PROPYL)-UREIDO]-THIOPHENE-2-CARBOXYLIC ACID] | 5 to 20 µM
CCS(=O)(=O)Nc1cc(-c2ccccc2)sc1C(=O)O [Compound 242, 3-ETHANESULFONYLAMINO-5-PHENYL-THIOPHENE-2-CARBOXYLIC ACID] | 5 to 20 µM
COC(=O)c1sc(-c2ccccc2)cc1N(C(=O)c1ccc(Cl)cc1Cl)C(C)C [Compound 287, 3-[(2,4-DICHLORO-BENZOYL)-ISOPROPYL-AMINO]-5-PHENYL-THIOPHENE-2-CARBOXYLIC ACID METHYL ESTER] | 5 to 20 µM
